Patent US8148367B2 (Takeda Pharmaceutical Company Limited, priority 2008, dated 2012)

molecular target: T1, Recombinant human renin (Homo sapiens, UniProt P00797); assay: In vitro enzymatic activity assay of renin inhibitors (fluorescence, QXL520/HiLyteFluo488 peptide substrate); assay type: biochemical; settings: not given
T1 construct: isolate the active form (residues 67-406); made in house; host or cells: FreeStyle 293-F cells, transient expression of pcDNA3.1(+)/hREN
T1 sequence (P00797 67-406): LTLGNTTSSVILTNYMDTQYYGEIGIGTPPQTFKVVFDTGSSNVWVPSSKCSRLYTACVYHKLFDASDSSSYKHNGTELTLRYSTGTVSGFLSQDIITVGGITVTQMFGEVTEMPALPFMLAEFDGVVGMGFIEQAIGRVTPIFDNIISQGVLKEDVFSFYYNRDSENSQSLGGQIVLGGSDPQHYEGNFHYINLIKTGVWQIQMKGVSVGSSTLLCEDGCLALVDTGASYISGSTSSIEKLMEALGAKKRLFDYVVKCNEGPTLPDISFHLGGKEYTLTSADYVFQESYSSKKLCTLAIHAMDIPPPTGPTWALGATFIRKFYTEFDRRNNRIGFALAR

Row | SMILES | IC50 [nM]
1 | Cc1ccccc1-n1c(-c2ccccc2)c(C(=O)N2CCNCC2)n(CCNC(=O)Oc2ccccc2)c1=O [Example 248, Phenyl 2-(2-oxo-4-phenyl-5-(piperazine-1-carbonyl)-3-o-tolyl-2,3-dihydro-1H-imidazol-1-yl)ethylcarbamate] | > 1000

same assay, conditions: recombinant human renin 3 nM, 1 μM substrate, pre-incubated 10 minutes at 37° C., incubation one hour, pH 7.4, 5% DMSO; read-out: IC50 of Exemplified Compounds Against Renin

Row | IC50 [nM] | SMILES
2 | < 100 | C=CCn1c(C(=O)N2CCNC[C@H]2Cc2ccccc2)c(-c2ccccc2)n(C2CCCCC2)c1=O [Example 64, (R)-1-Allyl-5-(2-benzylpiperazine-1-carbonyl)-3-cyclohexyl-4-phenyl-1H-imidazol-2(3H)-one]
3 | < 100 | O=C(c1[nH]c(=O)n(-c2ccc3c(c2)NCCC3)c1-c1ccccc1)N1CCNC[C@H]1CCOc1ccccc1 [Example 140, (R)-4-(2-(2-Phenoxyethyl)piperazine-1-carbonyl)-5-phenyl-1-(1,2,3,4-tetrahydroquinolin-7-yl)-1H-imidazol-2(3H)-one]
4 | < 100 | COCCn1c(C(=O)N2CCNC[C@H]2Cc2ccccc2)c(-c2ccccc2)n(C2CCCCC2)c1=O [Example 66, (R)-4-(2-Benzylpiperazine-1-carbonyl)-1-cyclohexyl-3-(2-methoxyethyl)-5-phenyl-1H-imidazol-2(3H)-one]
5 | 100 to 500 | Cc1ccccc1-n1c(-c2ccccc2)c(C(=O)N2CCNCC2)n(CCCNS(=O)(=O)c2ccc(Cl)cc2)c1=O [Example 219, 4-Chloro-N-(3-(2-oxo-4-phenyl-5-(piperazine-1-carbonyl)-3-o-tolyl-2,3-dihydro-1H-imidazol-1-yl)propyl)benzenesulfonamide]
6 | > 1000 | O=C(c1c(-c2ccccc2)n(C2CCCN(S(=O)(=O)c3ccccn3)C2)c(=O)n1Cc1ccccc1)N1CCNCC1 (stereo not drawn) [Example 101, 1-Benzyl-4-phenyl-5-(piperazine-1-carbonyl)-3-(1-(pyridin-2-ylsulfonyl)piperidin-3-yl)-1H-imidazol-2(3H)-one]
7 | 100 to 500 | NC(=O)Cn1c(C(=O)N2CCNC[C@H]2Cc2ccccc2)c(-c2ccccc2)n(C2CCCCC2)c1=O [Example 67, (R)-2-(5-(2-Benzylpiperazine-1-carbonyl)-3-cyclohexyl-2-oxo-4-phenyl-2,3-dihydro-1H-imidazol-1-yl)acetamide]
8 | 100 to 500 | O=C(c1c(-c2ccccc2)n(C2CCCN(S(=O)(=O)c3ccccc3)C2)c(=O)n1Cc1cccc(Oc2ccccc2)c1)N1CCNCC1 (stereo not drawn) [Example 102, 1-(3-Phenoxybenzyl)-4-phenyl-3-(1-(phenylsulfonyl)piperidin-3-yl)-5-(piperazine-1-carbonyl)-1H-imidazol-2(3H)-one]
9 | 100 to 500 | CCN(CC)c1cc(Cn2c(C(=O)N3CCNCC3)c(-c3ccccc3)n(C3CCCCC3)c2=O)cc(-c2ccc(OC)nc2)n1 [Example 17J, 1-cyclohexyl-3-((6-(diethylamino)-6′-methoxy-2,3′-bipyridin-4-yl)methyl)-5-phenyl-4-(piperazine-1-carbonyl)-1H-imidazol-2(3H)-one]
10 | < 100 | COCCN1CCOc2ccc(-n3c(-c4ccccc4)c(C(=O)N4CCNC[C@H]4Cc4ccccc4)[nH]c3=O)cc21 [Example 137, (R)-4-(2-Benzylpiperazine-1-carbonyl)-1-(4-(2-methoxyethyl)-3,4-dihydro-2H-benzo[b][1,4]oxazin-6-yl)-5-phenyl-1H-imidazol-2(3H)-one]
11 | < 100 | O=C(NC[C@@H]1CNCCN1C(=O)c1[nH]c(=O)n(C2CCCCC2)c1-c1ccccc1)c1ccccc1 [Example 108, (S)—N-((1-(1-Cyclohexyl-2-oxo-5-phenyl-2,3-dihydro-1H-imidazole-4-carbonyl)piperazin-2-yl)methyl)benzamide]
12 | < 100 | CCOC(=O)N1CCc2ccc(-n3c(-c4ccccc4)c(C(=O)N4CCNC[C@H]4Cc4ccccc4)[nH]c3=O)cc21 [Example 139, (R)-Ethyl 6-(4-(2-benzylpiperazine-1-carbonyl)-2-oxo-5-phenyl-2,3-dihydro-1H-imidazol-1-yl)indoline-1-carboxylate]
13 | < 100 | O=C(c1[nH]c(=O)n(-c2ccccc2NS(=O)(=O)c2ccccc2)c1-c1ccccc1)N1CCNC[C@H]1Cc1ccccc1 [Example 125, (R)—N-(2-(4-(2-benzylpiperazine-1-carbonyl)-2-oxo-5-phenyl-2,3-dihydro-1H-imidazol-1-yl)phenyl)Benzenesulfonamide]
14 | > 1000 | Cc1ccccc1-n1c(-c2ccccc2)c(C(=O)N2CCNCC2)n(CCNS(=O)(=O)c2ccc(Cl)cc2)c1=O [Example 207, 4-Chloro-N-(2-(2-oxo-4-phenyl-5-(piperazine-1-carbonyl)-3-o-tolyl-2,3-dihydro-1H-imidazol-1-yl)ethyl)benzenesulfonamide]
15 | 500 to 1000 | O=C(c1c(-c2ccccc2)n(C2CCCCC2)c(=O)n1Cc1cc(Cl)nc(N2CCOCC2)c1)N1CCNCC1 [Example 90, 1-((2-Chloro-6-morpholinopyridin-4-yl)methyl)-3-cyclohexyl-4-phenyl-5-(piperazine-1-carbonyl)-1H-imidazol-2(3H)-one]
16 | 100 to 500 | Cc1ccccc1-n1c(-c2ccccc2)c(C(=O)N2CCNCC2)n(CCNC(=O)Nc2ccccc2)c1=O [Example 211, 1-(2-(2-Oxo-4-phenyl-5-(piperazine-1-carbonyl)-3-o-tolyl-2,3-dihydro-1H-imidazol-1-yl)ethyl)-3-phenylurea]
17 | > 1000 | COc1ccccc1-n1c(-c2ccccc2)c(C(=O)N2CCNCC2)n(CCCNC(=O)c2ccccc2)c1=O [Example 159, N-(3-(3-(2-Methoxyphenyl)-2-oxo-4-phenyl-5-(piperazine-1-carbonyl)-2,3-dihydro-1H-imidazol-1-yl)propyl)benzamide]
18 | > 1000 | O=C(c1[nH]c(=O)n(-c2ccccc2)c1-c1ccccc1Cl)N1CCNCC1 [Example 26, 5-(2-Chlorophenyl)-1-phenyl-4-(piperazine-1-carbonyl)-1H-imidazol-2(3H)-one]
19 | 100 to 500 | Cc1ccccc1-n1c(-c2ccccc2)c(C(=O)N2CCNCC2)n(Cc2cccc(OCCOc3ccccc3)c2)c1=O [Example 73, 1-(3-(2-Phenoxyethoxy)benzyl)-4-phenyl-5-(piperazine-1-carbonyl)-3-o-tolyl-1H-imidazol-2(3H)-one]
20 | > 1000 | O=C(c1cccc(Cn2c(C(=O)N3CCNCC3)c(-c3ccccc3)n(-c3cccc(N4CCOCC4)c3)c2=O)c1)N1CCOCC1 [Example 57, 1-(3-(Morpholine-4-carbonyl)benzyl)-3-(3-morpholinophenyl)-4-phenyl-5-(piperazine-1-carbonyl)-1H-imidazol-2(3H)-one]
21 | 500 to 1000 | Cc1ccccc1-n1c(-c2ccccc2)c(C(=O)N2CCNCC2)n(CCCNS(=O)(=O)c2ccccc2F)c1=O [Example 229, 2-Fluoro-N-(3-(2-oxo-4-phenyl-5-(piperazine-1-carbonyl)-3-o-tolyl-2,3-dihydro-1H-imidazol-1-yl)propyl)benzenesulfonamide]
22 | < 100 | CCCCN1CCCc2ccc(-n3c(-c4ccccc4)c(C(=O)N4CCNC[C@H]4Cc4ccccc4)[nH]c3=O)cc21 [Example 131]
23 | < 100 | COc1ccccc1-n1c(-c2ccccc2)c(C(=O)N2CCNC[C@H]2Cc2ccccc2)[nH]c1=O [Example 113, (R)-4-(2-Benzylpiperazine-1-carbonyl)-1-(2-methoxyphenyl)-5-phenyl-1H-imidazol-2(3H)-one]
24 | 100 to 500 | COc1cccc(S(=O)(=O)NCCCn2c(C(=O)N3CCNCC3)c(-c3ccccc3)n(-c3cccc(N4CCOCC4)c3)c2=O)c1 [Example 198, 3-Methoxy-N-(3-(3-(3-morpholinophenyl)-2-oxo-4-phenyl-5-(piperazine-1-carbonyl)-2,3-dihydro-1H-imidazol-1-yl)propyl)benzenesulfonamide]
25 | > 1000 | Cc1ccccc1-n1c(-c2ccccc2)c(C(=O)N2CCNCC2)n(CCCNC(=O)OCc2ccccc2)c1=O [Example 255, Benzyl 3-(2-oxo-4-phenyl-5-(piperazine-1-carbonyl)-3-o-tolyl-2,3-dihydro-1H-imidazol-1-yl)propylcarbamate]
26 | > 1000 | CC(C)NC(=O)NCCCn1c(C(=O)N2CCNCC2)c(-c2ccccc2)n(-c2cccc(N3CCOCC3)c2)c1=O [Example 61, 1-Isopropyl-3-(3-(3-(3-morpholinophenyl)-2-oxo-4-phenyl-5-(piperazine-1-carbonyl)-2,3-dihydro-1H-imidazol-1-yl)propyl)urea]
27 | 100 to 500 | COc1cc(-c2cc(Cn3c(C(=O)N4CCNCC4)c(-c4ccccc4)n(C4CCCCC4)c3=O)cc(-c3ccnc(OC)c3)n2)ccn1 [Example 17E, 1-Cyclohexyl-3-((2,6-di(2-methoxyl-pyridine-4-yl)pyridin-4-yl)methyl)-5-phenyl-4-(piperazine-1-carbonyl)-1H-imidazol-2(3H)-one]
28 | 100 to 500 | COCCOc1cccc(Cn2c(C(=O)N3CCNCC3)c(-c3ccccc3)n(-c3ccccc3C)c2=O)c1 [Example 186, 1-(3-(2-Methoxyethoxy)benzyl)-4-phenyl-5-(piperazine-1-carbonyl)-3-o-tolyl-1H-imidazol-2(3H)-one]
29 | 500 to 1000 | COc1ccc(NC(=O)NCCn2c(C(=O)N3CCNCC3)c(-c3ccccc3)n(-c3ccccc3C)c2=O)cc1 [Example 228, 1-(4-Methoxyphenyl)-3-(2-(2-oxo-4-phenyl-5-(piperazine-1-carbonyl)-3-o-tolyl-2,3-dihydro-1H-imidazol-1-yl)ethyl)urea]
30 | > 1000 | COC(=O)NCCCn1c(C(=O)N2CCNCC2)c(-c2ccccc2)n(-c2ccccc2C)c1=O [Example 253, Methyl 3-(2-oxo-4-phenyl-5-(piperazine-1-carbonyl)-3-o-tolyl-2,3-dihydro-1H-imidazol-1-yl)propylcarbamate]
